Source: ChEMBL document CHEMBL4152385, “Synthesis, Receptor Affinity, and Antiallodynic Activity of Spirocyclic σ Receptor Ligands with Exocyclic Amino Moiety” (J Med Chem, 2018)
Blank lines part the entries; values can stand above or below the compound they belong to.

Columns and labels:
[1] = biological target: Sigma non-opioid intracellular receptor 1 (Cavia porcellus, UniProt Q60492); test: Displacement of [3H]-(+)-pentazocine from sigma1 receptor in guinea pig brain cortex membranes incubated for 120 mins by scintillation counting method; assay type: cell membranes
Sigma non-opioid intracellular receptor 1, sequence (Q60492 whole entry): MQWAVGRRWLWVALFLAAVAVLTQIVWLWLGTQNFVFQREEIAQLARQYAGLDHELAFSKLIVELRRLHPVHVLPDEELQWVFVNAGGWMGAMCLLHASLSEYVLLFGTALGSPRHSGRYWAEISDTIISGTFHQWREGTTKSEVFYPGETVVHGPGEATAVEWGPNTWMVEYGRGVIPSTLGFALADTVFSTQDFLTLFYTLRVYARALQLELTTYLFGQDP

[2] = biological target: T1, Sigma intracellular receptor 2 (Rattus norvegicus, UniProt Q5U3Y7); test: Displacement of [3H]-di-o-tolylguanidine from sigma2 receptor in rat liver membranes incubated for 120 mins by scintillation counting method; assay type: cell membranes, Membrane
T1 sequence (Q5U3Y7 whole entry): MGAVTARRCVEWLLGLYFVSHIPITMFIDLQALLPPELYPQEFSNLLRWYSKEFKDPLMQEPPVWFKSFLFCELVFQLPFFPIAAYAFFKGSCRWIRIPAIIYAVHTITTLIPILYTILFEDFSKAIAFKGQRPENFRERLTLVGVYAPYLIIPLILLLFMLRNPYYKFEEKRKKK

[3] = biological target: T1, Sigma intracellular receptor 2; test: Displacement of [3H]-DTG from sigma2 receptor in rat liver membranes; assay type: cell membranes, Membrane
[4] = biological target: Kappa-type opioid receptor (Cavia porcellus, UniProt P41144); test: Displacement of [3H]U-69,593 from KOR in guinea pig brain membranes incubated for 120 mins by scintillation counting method; assay type: cell membranes, Membrane
[5] = Displacement of [3H]-(+)-MK-801 from NMDA PCP binding site in pig brain cortex membrane incubated for 120 mins by scintillation counting method; assay type: cell membranes, Sus scrofa
[6] = biological target: Glutamate receptor ionotropic, NMDA 2B (Homo sapiens, UniProt Q13224); test: Displacement of [3H]ifenprodil from GluN2B (unknown origin) expressed in mouse L(tk-) cell membranes incubated for 120 mins by scintillation counting method
Glutamate receptor ionotropic, NMDA 2B, sequence (Q13224 whole entry): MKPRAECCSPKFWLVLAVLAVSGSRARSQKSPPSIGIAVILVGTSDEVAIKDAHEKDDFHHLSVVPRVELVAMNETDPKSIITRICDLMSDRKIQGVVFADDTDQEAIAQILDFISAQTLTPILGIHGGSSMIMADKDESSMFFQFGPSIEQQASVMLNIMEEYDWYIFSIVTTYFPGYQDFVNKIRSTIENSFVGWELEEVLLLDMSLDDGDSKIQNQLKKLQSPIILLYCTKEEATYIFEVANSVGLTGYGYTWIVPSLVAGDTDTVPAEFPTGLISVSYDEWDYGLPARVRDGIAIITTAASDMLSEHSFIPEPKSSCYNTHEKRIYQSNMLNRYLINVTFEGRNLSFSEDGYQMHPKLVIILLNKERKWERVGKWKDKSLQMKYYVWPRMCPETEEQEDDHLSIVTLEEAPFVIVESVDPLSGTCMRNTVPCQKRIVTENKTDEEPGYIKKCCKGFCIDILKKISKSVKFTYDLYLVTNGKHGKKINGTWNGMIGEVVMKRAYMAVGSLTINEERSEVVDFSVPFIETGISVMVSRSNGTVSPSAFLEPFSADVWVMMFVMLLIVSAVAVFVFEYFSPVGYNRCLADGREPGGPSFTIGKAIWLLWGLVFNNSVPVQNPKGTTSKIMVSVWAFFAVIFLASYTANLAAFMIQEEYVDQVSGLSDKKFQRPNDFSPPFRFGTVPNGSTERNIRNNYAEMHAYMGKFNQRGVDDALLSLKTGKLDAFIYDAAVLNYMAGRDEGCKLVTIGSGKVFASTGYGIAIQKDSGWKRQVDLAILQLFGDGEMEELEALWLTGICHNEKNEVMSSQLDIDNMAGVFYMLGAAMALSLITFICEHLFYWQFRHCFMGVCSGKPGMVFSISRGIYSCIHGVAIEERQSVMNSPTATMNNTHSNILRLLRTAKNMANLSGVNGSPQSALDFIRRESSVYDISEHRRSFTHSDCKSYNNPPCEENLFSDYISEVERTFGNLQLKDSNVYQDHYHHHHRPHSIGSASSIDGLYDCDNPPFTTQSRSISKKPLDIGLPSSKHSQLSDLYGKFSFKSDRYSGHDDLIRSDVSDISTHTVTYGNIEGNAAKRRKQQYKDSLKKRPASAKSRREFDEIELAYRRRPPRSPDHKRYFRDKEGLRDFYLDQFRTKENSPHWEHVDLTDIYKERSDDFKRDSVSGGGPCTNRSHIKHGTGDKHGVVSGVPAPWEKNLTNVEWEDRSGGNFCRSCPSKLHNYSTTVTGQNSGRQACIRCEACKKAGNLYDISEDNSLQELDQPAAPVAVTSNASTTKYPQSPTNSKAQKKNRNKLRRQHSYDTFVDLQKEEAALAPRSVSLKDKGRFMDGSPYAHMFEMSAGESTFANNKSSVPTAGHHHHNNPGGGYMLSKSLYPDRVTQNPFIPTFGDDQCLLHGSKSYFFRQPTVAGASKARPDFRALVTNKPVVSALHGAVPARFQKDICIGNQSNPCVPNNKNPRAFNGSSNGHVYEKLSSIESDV

[7] = biological target: Voltage-gated inwardly rectifying potassium channel KCNH2 (Homo sapiens, UniProt Q12809); test: Inhibition of human ERG expressed in CHO cells by automated patch clamp assay; assay type: cell-based
Voltage-gated inwardly rectifying potassium channel KCNH2, sequence (Q12809 whole entry): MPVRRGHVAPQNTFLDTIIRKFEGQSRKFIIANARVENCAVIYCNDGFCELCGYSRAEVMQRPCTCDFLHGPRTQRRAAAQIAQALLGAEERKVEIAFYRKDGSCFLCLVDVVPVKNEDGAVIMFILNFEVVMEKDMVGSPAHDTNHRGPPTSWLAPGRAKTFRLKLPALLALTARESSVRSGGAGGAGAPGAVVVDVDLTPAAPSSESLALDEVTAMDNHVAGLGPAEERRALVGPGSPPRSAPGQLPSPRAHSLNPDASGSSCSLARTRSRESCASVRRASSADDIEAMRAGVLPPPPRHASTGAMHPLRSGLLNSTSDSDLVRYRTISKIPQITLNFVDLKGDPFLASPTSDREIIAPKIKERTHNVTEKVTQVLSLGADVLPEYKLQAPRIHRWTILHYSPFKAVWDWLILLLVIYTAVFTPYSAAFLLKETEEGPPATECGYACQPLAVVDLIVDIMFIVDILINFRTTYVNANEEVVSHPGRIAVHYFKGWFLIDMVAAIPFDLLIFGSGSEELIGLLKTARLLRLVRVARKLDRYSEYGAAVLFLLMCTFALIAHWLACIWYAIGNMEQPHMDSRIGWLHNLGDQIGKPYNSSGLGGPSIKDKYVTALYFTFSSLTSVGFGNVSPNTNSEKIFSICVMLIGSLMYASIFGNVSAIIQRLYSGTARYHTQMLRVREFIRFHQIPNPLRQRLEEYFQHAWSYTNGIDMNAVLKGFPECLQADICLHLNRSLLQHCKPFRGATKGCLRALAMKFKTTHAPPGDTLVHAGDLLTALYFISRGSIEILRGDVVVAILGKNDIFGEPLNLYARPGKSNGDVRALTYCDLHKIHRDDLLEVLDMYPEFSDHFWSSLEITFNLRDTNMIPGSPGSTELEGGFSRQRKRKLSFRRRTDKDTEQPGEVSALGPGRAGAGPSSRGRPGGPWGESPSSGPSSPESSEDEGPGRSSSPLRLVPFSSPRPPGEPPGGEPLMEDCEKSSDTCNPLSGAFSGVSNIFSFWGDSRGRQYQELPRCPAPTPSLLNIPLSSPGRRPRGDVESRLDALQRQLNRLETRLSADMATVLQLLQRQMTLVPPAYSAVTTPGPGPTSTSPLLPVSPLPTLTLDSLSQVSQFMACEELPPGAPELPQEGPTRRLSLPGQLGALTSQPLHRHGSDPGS

[8] = biological target: T2, Alpha-1A adrenergic receptor (Homo sapiens) (UniProt P35348); test: Inhibition of alpha-1A adrenergic receptor (unknown origin) at 1 uM relative to control
T2 sequence (whole entry): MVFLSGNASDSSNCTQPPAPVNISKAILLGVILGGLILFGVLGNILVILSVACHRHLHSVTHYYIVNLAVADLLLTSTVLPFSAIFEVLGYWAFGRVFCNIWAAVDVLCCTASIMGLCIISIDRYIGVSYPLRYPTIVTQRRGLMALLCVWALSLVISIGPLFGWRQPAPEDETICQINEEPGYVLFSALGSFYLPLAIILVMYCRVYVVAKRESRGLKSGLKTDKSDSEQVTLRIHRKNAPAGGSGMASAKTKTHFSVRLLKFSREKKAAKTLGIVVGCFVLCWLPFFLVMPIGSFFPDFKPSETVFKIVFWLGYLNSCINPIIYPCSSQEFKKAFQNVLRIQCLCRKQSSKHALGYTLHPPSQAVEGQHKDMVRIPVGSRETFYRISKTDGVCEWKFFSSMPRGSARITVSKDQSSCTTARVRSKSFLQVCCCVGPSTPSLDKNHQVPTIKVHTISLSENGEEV

[9] = biological target: Histamine H1 receptor (Homo sapiens) (UniProt P35367); test: Inhibition of histamine H1 receptor (unknown origin) at 1 uM relative to control
Histamine H1 receptor (Homo sapiens), sequence (P35367 whole entry): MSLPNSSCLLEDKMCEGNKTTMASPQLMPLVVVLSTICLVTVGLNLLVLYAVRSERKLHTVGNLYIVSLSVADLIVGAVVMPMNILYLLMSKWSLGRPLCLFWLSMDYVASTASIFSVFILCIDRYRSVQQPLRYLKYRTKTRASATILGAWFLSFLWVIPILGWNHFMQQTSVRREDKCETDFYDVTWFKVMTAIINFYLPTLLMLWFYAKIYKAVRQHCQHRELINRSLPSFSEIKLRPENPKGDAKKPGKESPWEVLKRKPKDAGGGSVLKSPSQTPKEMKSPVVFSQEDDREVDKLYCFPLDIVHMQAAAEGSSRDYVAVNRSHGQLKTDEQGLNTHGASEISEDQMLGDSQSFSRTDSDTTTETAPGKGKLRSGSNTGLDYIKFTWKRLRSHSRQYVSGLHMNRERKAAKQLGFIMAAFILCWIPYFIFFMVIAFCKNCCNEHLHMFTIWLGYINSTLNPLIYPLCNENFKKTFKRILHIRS

[10] = biological target: T3, 5-hydroxytryptamine receptor 1A (Homo sapiens) (UniProt P08908); test: Inhibition of 5-HT1A receptor (unknown origin) at 1 uM relative to control
T3 sequence (whole entry): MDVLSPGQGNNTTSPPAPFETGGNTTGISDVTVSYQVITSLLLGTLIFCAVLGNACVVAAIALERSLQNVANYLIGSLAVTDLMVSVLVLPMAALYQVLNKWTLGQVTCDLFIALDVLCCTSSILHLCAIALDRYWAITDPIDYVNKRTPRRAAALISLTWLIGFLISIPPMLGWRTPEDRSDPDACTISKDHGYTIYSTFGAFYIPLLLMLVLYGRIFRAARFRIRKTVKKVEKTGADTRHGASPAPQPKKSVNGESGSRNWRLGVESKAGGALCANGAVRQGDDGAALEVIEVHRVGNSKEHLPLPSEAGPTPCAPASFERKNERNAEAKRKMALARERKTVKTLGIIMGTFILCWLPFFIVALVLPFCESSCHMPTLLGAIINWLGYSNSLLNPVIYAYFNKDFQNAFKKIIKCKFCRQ

[11] = biological target: 5-hydroxytryptamine receptor 2B (Homo sapiens) (UniProt P41595); test: Inhibition of 5-HT2B receptor (unknown origin) at 1 uM relative to control
5-hydroxytryptamine receptor 2B (Homo sapiens), sequence (P41595 whole entry): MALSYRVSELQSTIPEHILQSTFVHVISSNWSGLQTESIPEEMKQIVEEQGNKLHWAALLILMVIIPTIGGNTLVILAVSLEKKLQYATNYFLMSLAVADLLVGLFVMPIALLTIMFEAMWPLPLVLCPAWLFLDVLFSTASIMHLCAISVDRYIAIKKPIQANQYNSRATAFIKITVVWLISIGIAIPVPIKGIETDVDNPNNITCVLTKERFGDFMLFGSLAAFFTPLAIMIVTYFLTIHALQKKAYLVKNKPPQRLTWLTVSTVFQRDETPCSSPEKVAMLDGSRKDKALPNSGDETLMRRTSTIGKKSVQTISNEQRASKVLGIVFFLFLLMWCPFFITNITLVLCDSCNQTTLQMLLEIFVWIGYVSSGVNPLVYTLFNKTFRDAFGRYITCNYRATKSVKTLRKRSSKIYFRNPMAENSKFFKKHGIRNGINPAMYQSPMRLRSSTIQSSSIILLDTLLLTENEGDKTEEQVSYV

[12] = biological target: Sodium-dependent noradrenaline transporter (Homo sapiens) (UniProt P23975); test: Inhibition of NET (unknown origin) at 1 uM relative to control
Sodium-dependent noradrenaline transporter (Homo sapiens), sequence (P23975 whole entry): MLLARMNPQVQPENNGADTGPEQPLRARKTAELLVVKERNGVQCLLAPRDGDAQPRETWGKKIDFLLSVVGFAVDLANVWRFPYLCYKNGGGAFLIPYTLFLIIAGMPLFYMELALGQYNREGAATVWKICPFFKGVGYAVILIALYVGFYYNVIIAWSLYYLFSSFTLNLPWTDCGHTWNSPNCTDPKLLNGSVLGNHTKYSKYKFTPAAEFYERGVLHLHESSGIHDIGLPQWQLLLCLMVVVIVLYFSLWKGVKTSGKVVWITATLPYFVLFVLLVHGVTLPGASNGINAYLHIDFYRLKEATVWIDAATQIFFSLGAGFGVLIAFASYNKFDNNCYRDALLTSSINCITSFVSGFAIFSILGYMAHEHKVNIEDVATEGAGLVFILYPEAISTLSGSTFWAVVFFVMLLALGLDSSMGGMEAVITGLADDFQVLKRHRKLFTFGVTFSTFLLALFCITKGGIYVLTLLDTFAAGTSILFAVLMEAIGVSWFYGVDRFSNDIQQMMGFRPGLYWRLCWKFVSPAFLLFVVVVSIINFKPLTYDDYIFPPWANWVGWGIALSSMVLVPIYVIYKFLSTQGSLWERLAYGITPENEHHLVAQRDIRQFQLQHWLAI

[13] = biological target: Sodium-dependent dopamine transporter (Homo sapiens) (UniProt Q01959); test: Inhibition of DAT (unknown origin) at 1 uM relative to control
Sodium-dependent dopamine transporter (Homo sapiens), sequence (Q01959 whole entry): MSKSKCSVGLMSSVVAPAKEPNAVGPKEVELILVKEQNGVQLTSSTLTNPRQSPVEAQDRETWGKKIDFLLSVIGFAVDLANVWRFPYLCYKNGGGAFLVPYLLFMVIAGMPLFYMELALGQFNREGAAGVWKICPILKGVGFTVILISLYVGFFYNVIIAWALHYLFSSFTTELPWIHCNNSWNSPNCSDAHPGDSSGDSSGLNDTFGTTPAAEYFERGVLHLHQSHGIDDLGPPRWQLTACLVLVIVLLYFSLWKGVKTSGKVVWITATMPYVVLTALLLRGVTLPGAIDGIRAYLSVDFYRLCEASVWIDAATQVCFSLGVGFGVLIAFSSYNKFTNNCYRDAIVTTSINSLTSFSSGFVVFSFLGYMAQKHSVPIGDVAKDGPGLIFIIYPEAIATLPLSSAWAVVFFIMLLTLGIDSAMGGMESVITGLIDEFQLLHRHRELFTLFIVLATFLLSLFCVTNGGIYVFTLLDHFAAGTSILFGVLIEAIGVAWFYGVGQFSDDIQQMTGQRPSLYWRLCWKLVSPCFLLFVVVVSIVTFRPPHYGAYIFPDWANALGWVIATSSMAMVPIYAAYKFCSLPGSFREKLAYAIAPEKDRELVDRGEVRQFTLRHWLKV

[14] = biological target: Sodium-dependent serotonin transporter (Homo sapiens) (UniProt P31645); test: Inhibition of SERT (unknown origin) at 1 uM relative to control
[15] = Stability in pH 2 aqueous HCl solution assessed as parent compound remaining after 24 hrs by HPLC; assay type: physicochemical; conditions: buffer, pH 2, 24 h
[16] = Stability in pH 7.4 phosphate buffer assessed as parent compound remaining after 24 hrs by HPLC; assay type: physicochemical; conditions: pH 7.4, 24 h
[17] = biological target: Mu-type opioid receptor (Cavia porcellus, UniProt P97266); test: Displacement of [3H]DAMGO from MOR in guinea pig brain membranes incubated for 120 mins by scintillation counting method; assay type: cell membranes, Membrane

Ki [1]: 158 nM
SMILES: CO[C@H]1Cc2ccccc2C2(CCC(NCc3ccccc3)CC2)O1 (stereo not given in full)

SMILES: COc1cc2c(cc1OC)CN(CCCCNC(=O)c1cc(Br)cc(OC)c1OC)CC2
Ki [2]: 8.2 nM
Ki [3]: 8.2 nM

SMILES: Cc1ccc(CNC2CCC3(CC2)O[C@H](O)Cc2ccccc23)c(C)c1 (stereo not given in full)
Ki [1]: 349 nM
Ki [2]: 181 nM

Ki [1]: 548 nM
Ki [2]: 179 nM
SMILES: Cc1ccc(CNC2CCC3(CC2)O[C@@H](CCO)Cc2ccccc23)c(C)c1 (stereo not given in full)

Ki [2]: 343 nM
SMILES: CCOC(=O)C[C@H]1Cc2ccccc2C2(CCC(N3CCc4cc(OC)c(OC)cc4C3)CC2)O1 (stereo not given in full)

Ki [2]: 355 nM
SMILES: CCOC(=O)C[C@@H]1Cc2ccccc2C2(CCC(N3CCN(C4CCCCC4)CC3)CC2)O1 (stereo not given in full)

SMILES: Cc1ccc(CNC2CCC3(CC2)O[C@@H](O)Cc2ccccc23)c(C)c1 (stereo not given in full)
Ki [2]: 66 nM

Ki [1]: 198 nM
Ki [2]: 527 nM
SMILES: FCC[C@H]1Cc2ccccc2C2(CCC(NC3CCc4ccccc4CC3)CC2)O1 (stereo not given in full)

Ki [2]: 49 nM
SMILES: CO[C@@H]1Cc2ccccc2C2(CCC(NC3CCc4ccccc4CC3)CC2)O1 (stereo not given in full)

Ki [1]: 265 nM
Ki [2]: 77 nM
SMILES: CO[C@H]1Cc2ccccc2C2(CCC(NC3CCc4ccccc4CC3)CC2)O1 (stereo not given in full)

Ki [1]: 538 nM
SMILES: CO[C@@H]1Cc2ccccc2C2(CCC(NCc3ccccc3)CC2)O1 (stereo not given in full)

Ki [1]: 635 nM
SMILES: CO[C@H]1Cc2ccccc2C2(CCC(NCCCc3cn(-c4ccc(F)cc4)c4ccccc34)CC2)O1 (stereo not given in full)

Ki [1]: 47 nM
Ki [2]: 27 nM
Ki [4]: 781 nM
Ki [5]: > 1000 nM
Ki [6]: 34 nM
inhibition [8]: < 50%
inhibition [9]: 76%
inhibition [10]: 55%
inhibition [11]: < 50%
inhibition [12]: < 50%
inhibition [13]: < 50%
inhibition [14]: < 50%
Stability [15]: Stable
Stability [16]: Stable
SMILES: O[C@H]1Cc2ccccc2C2(CCC(N3CCN(C4CCCCC4)CC3)CC2)O1 (stereo not given in full)
IC50 [7]: 3210 nM

Ki [1]: 547 nM
Ki [2]: 159 nM
SMILES: CCOC(=O)C[C@H]1Cc2ccccc2C2(CCC(NCc3ccc(C)cc3C)CC2)O1 (stereo not given in full)

Ki [1]: 28 nM
SMILES: OCC[C@H]1Cc2ccccc2C2(CCC(N3CCN(C4CCCCC4)CC3)CC2)O1 (stereo not given in full)

Ki [2]: 51 nM
Ki [17]: 458 nM
Ki [5]: > 1000 nM
Ki [6]: 54 nM
inhibition [8]: 78%
inhibition [9]: 98%
inhibition [10]: 68%
inhibition [11]: < 50%
inhibition [12]: < 50%
inhibition [13]: < 50%
inhibition [14]: < 50%
Stability [15]: Stable
Stability [16]: Stable
SMILES: CCOC(=O)C[C@H]1Cc2ccccc2C2(CCC(N3CCN(C4CCCCC4)CC3)CC2)O1 (stereo not given in full)
IC50 [7]: 1750 nM

Ki [2]: 54 nM
SMILES: CO[C@H]1Cc2ccccc2C2(CCC(NCc3ccc(C)cc3C)CC2)O1 (stereo not given in full)
